{
  "source": "patent US20080200454A1",
  "about": "“CARBON-LINKED TETRAHYDRO-PYRAZOLO-PYRIDINE MODULATORS OF CATHEPSIN S” (priority 2007, published 2008)",
  "note": "pIC50: −log10 of the molar value.",
  "data": [
    {"target": "Recombinant human cathepsin S (CatS) (Homo sapiens, UniProt P25774)", "sequence (P25774 115-331)": "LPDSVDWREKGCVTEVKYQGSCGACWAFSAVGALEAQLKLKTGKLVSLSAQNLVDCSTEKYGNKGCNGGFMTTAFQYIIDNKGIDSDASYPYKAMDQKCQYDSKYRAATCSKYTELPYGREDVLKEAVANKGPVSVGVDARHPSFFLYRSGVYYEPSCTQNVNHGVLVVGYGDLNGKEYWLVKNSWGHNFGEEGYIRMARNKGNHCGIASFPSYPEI", "assay": "Recombinant human cathepsin S (CatS) inhibition assay, fluorogenic substrate Z-Valine-Valine-Arginine-AMC;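 also: Baculovirus-expressed CatS in pH 5.0 sodium acetate buffer with DTT and NaCl, fluorescence read each minute over 20 min, inhibition derived from rate slope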", "settings": "not given", "values": [
      {"smiles": "CS(=O)(=O)N1CCc2c(c(-c3ccc(Cl)c(CCCCN4CCCCCC4)c3)nn2CCCN2CCC(N3CCCC3=O)CC2)C1", "note": "[Example 114, 1-[1-(3-{3-[3-(4-Azepan-1-yl-butyl)-4-chloro-phenyl]-5-methanesulfonyl-4,5,6,7-tetrahydro-pyrazolo[4,3-c]pyridin-1-yl}-propyl)-piperidin-4-yl]-pyrrolidin-2-one]", "pIC50": 5.82},
      {"smiles": "CS(=O)(=O)N1CCc2c(c(-c3ccc(Cl)c(CCc4ccc(Cl)cc4)c3)nn2CC(O)CN2CCC3(CCNC3=O)CC2)C1", "note": "(centres unmarked) [Example 148, 8-[3-(3-{4-Chloro-3-[2-(4-chloro-phenyl)-ethyl]-phenyl}-5-methanesulfonyl-4,5,6,7-tetrahydro-pyrazolo[4,3-c]pyridin-1-yl)-2-hydroxy-propyl]-2,8-diaza-spiro[4.5]decan-1-one]", "pIC50": 7.10},
      {"smiles": "CS(=O)(=O)N1CCc2c(c(-c3ccc(Cl)c(/C=C/c4ccccc4)c3)nn2CCCN2CCOCC2)C1", "note": "[Example 68, 3-(4-Chloro-3-E-styryl-phenyl)-5-methanesulfonyl-1-(3-morpholin-4-yl-propyl)-4,5,6,7-tetrahydro-1H-pyrazolo[4,3-c]pyridine]", "pIC50": 5.55},
      {"smiles": "COc1cccc(S(=O)(=O)NCCCc2cc(-c3nn(CCCN4CCC(N5CCCC5=O)CC4)c4c3CN(S(C)(=O)=O)CC4)ccc2Cl)c1", "note": "[Example 93, N-{3-[2-Chloro-5-(5-methanesulfonyl-1-{3-[4-(2-oxo-pyrrolidin-1-yl)-piperidin-1-yl]-propyl}-4,5,6,7-tetrahydro-1H-pyrazolo[4,3-c]pyridin-3-yl)-phenyl]-propyl}-3-methoxy-benzenesulfonamide]", "pIC50": 5.98},
      {"smiles": "C[C@H]1COCCN1CCCn1nc(-c2ccc(Cl)c(C#Cc3ccc(Cl)c(CNC[C@@H]4CCCO4)c3)c2)c2c1CCN(C(=O)C(N)=O)C2", "note": "[Example 267, 2-{3-[4-Chloro-3-(4-chloro-3-{[((2S)-tetrahydro-furan-2-ylmethyl)-amino]-methyl}-phenylethynyl)-phenyl]-1-[3-((3S)-3-methyl-morpholin-4-yl)-propyl]-1,4,6,7-tetrahydro-pyrazolo[4,3-c]pyridin-5-yl}-2-oxo-acetamide]", "pIC50": 8.00},
      {"smiles": "CNCc1ccc(C#Cc2cc(-c3nn(CCCN4CCOCC4)c4c3CN(S(C)(=O)=O)CC4)ccc2Cl)cc1", "note": "[Example 315, 1-[4-({2-Chloro-5-[5-(methylsulfonyl)-1-(3-morpholin-4-ylpropyl)-4,5,6,7-tetrahydro-1H-pyrazolo[4,3-c]pyridin-3-yl]phenyl}ethynyl)phenyl]-N-methylmethanamine]", "pIC50": 5.87},
      {"smiles": "CS(=O)(=O)N1CCc2c(c(-c3ccc(C(F)(F)F)c(C#Cc4ccc(Cl)cc4)c3)nn2CC(O)CN2CCC(N3CCCC3=O)CC2)C1", "note": "(centres unmarked) [Example 116, 1-[1-(3-{3-[3-(4-Chloro-phenylethynyl)-4-trifluoromethyl-phenyl]-5-methanesulfonyl-4,5,6,7-tetrahydro-pyrazolo[4,3-c]pyridin-1-yl}-2-hydroxy-propyl)-piperidin-4-yl]-pyrrolidin-2-one]", "pIC50": 7.40},
      {"smiles": "CS(=O)(=O)N1CCc2c(c(-c3ccc(Cl)c(CCCNS(=O)(=O)c4ccccc4)c3)nn2CCCN2CCC(N3CCCC3=O)CC2)C1", "note": "[Example 91, N-{3-[2-Chloro-5-(5-methanesulfonyl-1-{3-[4-(2-oxo-pyrrolidin-1-yl)-piperidin-1-yl]-propyl}-4,5,6,7-tetrahydro-1H-pyrazolo[4,3-c]pyridin-3-yl)-phenyl]-propyl}-benzenesulfonamide]", "pIC50": 6.03},
      {"smiles": "CS(=O)(=O)N1CCc2c(c(-c3ccc(Cl)c(CCc4ccccc4)c3)nn2CCCN2CCOCC2)C1", "note": "[Example 62, 3-(4-Chloro-3-phenethyl-phenyl)-5-methanesulfonyl-1-(3-morpholin-4-yl-propyl)-4,5,6,7-tetrahydro-1H-pyrazolo[4,3-c]pyridine]", "pIC50": 5.91},
      {"smiles": "CC(=O)NCC(=O)N1CCc2c(c(-c3ccc(Cl)c(C#Cc4ccc(CNCc5ccc(Cl)cc5)cc4)c3)nn2CCCN2CCOCC2)C1", "note": "[Example 499, N-{2-[3-(4-Chloro-3-{[4-({[(4-chlorophenyl)methyl]amino}methyl)phenyl]ethynyl}phenyl)-1-(3-morpholin-4-ylpropyl)-1,4,6,7-tetrahydro-5H-pyrazolo[4,3-c]pyridin-5-yl]-2-oxoethyl}acetamide]", "pIC50": 6.80},
      {"smiles": "CS(=O)(=O)N1CCc2c(c(-c3ccc(Cl)c(C#Cc4ccc5c(c4)CNCC5)c3)nn2CCCN2CCN(c3ccccc3)CC2)C1", "note": "[Example 225, 7-[(2-Chloro-5-{5-(methylsulfonyl)-1-[3-(4-phenylpiperazin-1-yl)propyl]-4,5,6,7-tetrahydro-1H-pyrazolo[4,3-c]pyridin-3-yl}phenyl)ethynyl]-1,2,3,4-tetrahydroisoquinoline]", "pIC50": 8.00},
      {"smiles": "CC(NCc1ccc(C#Cc2cc(-c3nn(CCCN4CCN(c5ccccc5)CC4)c4c3CN(S(C)(=O)=O)CC4)ccc2Cl)cc1)c1ccccc1", "note": "(centres unmarked) [Example 478, N-({4-[(2-Chloro-5-{5-(methylsulfonyl)-1-[3-(4-phenylpiperazin-1-yl)propyl]-4,5,6,7-tetrahydro-1H-pyrazolo[4,3-c]pyridin-3-yl}phenyl)ethynyl]phenyl}methyl)-1-phenylethanamine]", "pIC50": 7.40},
      {"smiles": "CS(=O)(=O)N1CCc2c(c(-c3ccc(Cl)c(C#Cc4ccc(CNCc5ccc(Cl)c(Cl)c5)cc4)c3)nn2CCCN2CCOCC2)C1", "note": "[Example 212, 1-[4-({2-Chloro-5-[5-(methylsulfonyl)-1-(3-morpholin-4-ylpropyl)-4,5,6,7-tetrahydro-1H-pyrazolo[4,3-c]pyridin-3-yl]phenyl}ethynyl)phenyl]-N-[(3,4-dichlorophenyl)methyl]methanamine]", "pIC50": 7.10},
      {"smiles": "CS(=O)(=O)N1CCc2c(c(-c3ccc(Cl)c(C#Cc4ccc(CNCc5ccc(Cl)cc5)cc4)c3)nn2CCCN2CCC3(CC2)OCCO3)C1", "note": "[Example 335, 1-{4-[(2-Chloro-5-{1-[3-(1,4-dioxa-8-azaspiro[4.5]dec-8-yl)propyl]-5-(methylsulfonyl)-4,5,6,7-tetrahydro-1H-pyrazolo[4,3-c]pyridin-3-yl}phenyl)ethynyl]phenyl}-N-[(4-chlorophenyl)methyl]methanamine]", "pIC50": 7.22},
      {"smiles": "C[C@H]1COCCN1CCCn1nc(-c2ccc(Cl)c(C#Cc3ccc4c(c3)CN(C3CC3)CC4)c2)c2c1CCN(S(C)(=O)=O)C2", "note": "[Example 277, 7-({2-Chloro-5-[1-{3-[(3S)-3-methylmorpholin-4-yl]propyl}-5-(methylsulfonyl)-4,5,6,7-tetrahydro-1H-pyrazolo[4,3-c]pyridin-3-yl]phenyl}ethynyl)-2-cyclopropyl-1,2,3,4-tetrahydroisoquinoline]", "pIC50": 6.70}
    ]},
    {"target": "Recombinant human cathepsin S (CatS) (Homo sapiens, UniProt P25774)", "assay": "Recombinant human cathepsin S (CatS) inhibition assay, fluorogenic substrate Z-Valine-Valine-Arginine-AMC;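 also: Baculovirus-expressed CatS in pH 5.0 sodium acetate buffer with DTT and NaCl, fluorescence read each minute over 20 min, inhibition derived from rate slope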", "settings": "CatS IC50", "values": [
      {"smiles": "CS(=O)(=O)N1CCc2c(c(-c3ccc(Cl)c(C#Cc4ccc(CNCc5ccc(Cl)cc5)cc4)c3)nn2CCCN2CCN(C3CC3)CC2)C1", "note": "[Example 388, 1-{4-[(2-Chloro-5-{1-[3-(4-cyclopropylpiperazin-1-yl)propyl]-5-(methylsulfonyl)-4,5,6,7-tetrahydro-1H-pyrazolo[4,3-c]pyridin-3-yl}phenyl)ethynyl]phenyl}-N-[(4-chlorophenyl)methyl]methanamine]", "pIC50": 7.22},
      {"smiles": "C[C@H]1COCCN1CCCn1nc(-c2ccc(Cl)c(C#Cc3ccc4c(c3)CN(C(=O)OC(C)(C)C)CC4)c2)c2c1CCN(S(C)(=O)=O)C2", "note": "[Example 467, 1,1-Dimethylethyl 7-({2-chloro-5-[1-{3-[(3S)-3-methylmorpholin-4-yl]propyl}-5-(methylsulfonyl)-4,5,6,7-tetrahydro-1H-pyrazolo[4,3-c]pyridin-3-yl]phenyl}ethynyl)-3,4-dihydroisoquinoline-2(1H)-carboxylate]", "pIC50": 6.59},
      {"smiles": "COc1cccc(CNCc2ccc(C#Cc3cc(-c4nn(CCCN5CCSCC5)c5c4CN(C(N)=O)CC5)ccc3Cl)cc2)c1", "note": "[Example 534, 3-[4-Chloro-3-({4-[({[3-(methyloxy)phenyl]methyl}amino)methyl]phenyl}ethynyl)phenyl]-1-(3-thiomorpholin-4-ylpropyl)-1,4,6,7-tetrahydro-5H-pyrazolo[4,3-c]pyridine-5-carboxamide]", "pIC50": 7.05},
      {"smiles": "NC(=O)N1CCc2c(c(-c3ccc(Cl)c(C#Cc4ccc(Cl)c(CN5CCOCC5)c4)c3)nn2CCCN2CCSCC2)C1", "note": "[Example 606, 3-(4-Chloro-3-{[4-chloro-3-(morpholin-4-ylmethyl)phenyl]ethynyl}phenyl)-1-(3-thiomorpholin-4-ylpropyl)-1,4,6,7-tetrahydro-5H-pyrazolo[4,3-c]pyridine-5-carboxamide]", "pIC50": 7.40},
      {"smiles": "CS(=O)(=O)N1CCc2c(c(-c3ccc(Cl)c(C#Cc4ccc(CNCC5CC5)cc4)c3)nn2CCCN2CCOCC2)C1", "note": "[Example 341, 1-[4-({2-Chloro-5-[5-(methylsulfonyl)-1-(3-morpholin-4-ylpropyl)-4,5,6,7-tetrahydro-1H-pyrazolo[4,3-c]pyridin-3-yl]phenyl}ethynyl)phenyl]-N-(cyclopropylmethyl)methanamine]", "pIC50": 6.08},
      {"smiles": "Cc1cccc(CNCc2ccc(C#Cc3cc(-c4nn(CCCN5CCSCC5)c5c4CN(C(N)=O)CC5)ccc3Cl)cc2)c1", "note": "[Example 508, 3-(4-Chloro-3-{[4-({[(3-methylphenyl)methyl]amino}methyl)phenyl]ethynyl}phenyl)-1-(3-thiomorpholin-4-ylpropyl)-1,4,6,7-tetrahydro-5H-pyrazolo[4,3-c]pyridine-5-carboxamide]", "pIC50": 6.96},
      {"smiles": "CC1CCN(CCCn2nc(-c3ccc(Cl)c(C#Cc4ccc(CNCc5ccc(Cl)cc5)cc4)c3)c3c2CCN(S(C)(=O)=O)C3)CC1", "note": "[Example 344, 1-{4-[(2-Chloro-5-{1-[3-(4-methylpiperidin-1-yl)propyl]-5-(methylsulfonyl)-4,5,6,7-tetrahydro-1H-pyrazolo[4,3-c]pyridin-3-yl}phenyl)ethynyl]phenyl}-N-[(4-chlorophenyl)methyl]methanamine]", "pIC50": 7.22}
    ]},
    {"target": "Recombinant human cathepsin S (CatS) (Homo sapiens, UniProt P25774)", "assay": "Recombinant human cathepsin S (CatS) inhibition assay, fluorogenic substrate Z-Valine-Valine-Arginine-AMC;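 also: Baculovirus-expressed CatS in pH 5.0 sodium acetate buffer with DTT and NaCl, fluorescence read each minute over 20 min, inhibition derived from rate slope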", "settings": "CatS IC50, Table 2; average of results obtained", "values": [
      {"smiles": "CS(=O)(=O)N1CCc2c(c(-c3ccc(Cl)c(C#Cc4ccc(N)cc4)c3)nn2CCCN2CCOCC2)C1", "note": "[Example 38, 4-{2-Chloro-5-[5-methanesulfonyl-1-(3-morpholin-4-yl-propyl)-4,5,6,7-tetrahydro-1H-pyrazolo[4,3-c]pyridin-3-yl]-phenylethynyl}-phenylamine]", "pIC50": 6.48}
    ]}
  ]
}
